The conditions of data set [1]: cited from earlier work.
In data set [2] the test system is acute experimental autoimmune encephalomyelitis (aEAE) model. To be noted: U.S. Pat. No. 6,077,851; cited from earlier work.
In data set [3] the test system is relapsing MS. The settings on record: Polman et al. 2005; cited from earlier work.
Data set [4] can be described thus: formation of MEG-LAQ in LAQ formulation containing meglumine (stability). The class given is physicochemical. To be noted: meglumine used in LAQ formulation. How it is done: MEG-LAQ may form under certain conditions when meglumine is used in LAQ formulation. For example, MEG-LAQ is formed at 40° C. and 75% Relative Humidity (accelerated conditions). MEG-LAQ is also formed at room temperature at <0.1%.

`CCN(C(=O)c1c(O)c2c(Cl)cccc2n(C)c1=O)c1ccccc1` [Laquinimod sodium]: the oral bioavailability entry in data set [1] is on record as “high oral bioavailability”.

In the case of `CCN(C(=O)c1c(O)c2c(Cl)cccc2n(C)c1=O)c1ccccc1` [Laquinimod, N-ethyl-N-phenyl-1,2-dihydro-4-hydroxy-5-chloro-1-methyl-2-oxoquinoline-3-carboxamide], the “effectiveness in the aEAE model” value in data set [2] was “effective”. In data set [3], the “development of active MRI lesions” value was “can reduce development of active MRI lesions”.

In the case of `CCN(C(=O)c1c(O)c2c(N(C)C[C@H](O)[C@@H](O)[C@H](O)[C@H](O)CO)cccc2n(C)c1=O)c1ccccc1` [MEG-LAQ, N-ethyl-4-hydroxyl-1-methyl-5-(methyl(2,3,4,5,6-pentahydroxyhexyl)amino)-2-oxo-N-phenyl-1,2-dihydroquinoline-3-carboxamide], the “MEG-LAQ formed in LAQ formulation” value in data set [4] (40° C. and 75% Relative Humidity (accelerated conditions)) is “formed”; in data set [4] (room temperature), under 0.1%.

Values taken from patent US8809537B2, “N-ethyl-4-hydroxyl-1-methyl-5-(methyl(2,3,4,5,6-pentahydroxyhexyl)amino)-2-oxo-N-phenyl-1,2-dihydroquinoline-3-carboxamide” (Teva Pharmaceutical Industries, Ltd., priority 2012, dated 2014).
